According to US8952024B2, “Herbicidal pyrimidone derivatives” (E I du Pont de Nemours and Company, priority 2009, dated 2015):

Experiments:
Format in all cases: in vivo
[1] = tested on: goosegrass (Eleusine indica); assay: Test B pre-/postemergence plant response; conditions: Preemergence, 62 g ai/ha; scale 0 to 100, 0 no effect, 100 complete control
[2] = tested on: rice (Oryza sativa); assay: Test B flooded paddy test; conditions: for Plant response rating, Flood, Rice: 250 g ai/ha, flooded paddy test, visual rating on 0 to 100 scale (0 no effect, 100 complete control) after 13 to 15 days; for Plant response rating, Rice: Flood (flooded paddy test), 13 to 15 days
Method in brief: (§1)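 Plants were grown to the 2-leaf stage, then pots were flooded to 3 cm above the soil and compounds were applied directly into the paddy water. That depth was held throughout. After 13 to 15 days in a greenhouse, injury was visually rated against controls on a 0–100 scale.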

[3] = tested on: barnyardgrass (Echinochloa crus-galli); assay: Test B flooded paddy test; conditions: for Plant response rating, Flood, Barnyardgrass: 250 g ai/ha, flooded paddy test, visual rating on 0 to 100 scale (0 no effect, 100 complete control) after 13 to 15 days; for Plant response rating, Barnyardgrass: Flood (flooded paddy test), 13 to 15 days
Method in brief: as §1

[4] = tested on: umbrella sedge (Cyperus difformis); assay: Test B flooded paddy test; conditions: for Plant response rating, Flood, Sedge, Umbrella: 250 g ai/ha, flooded paddy test, visual rating on 0 to 100 scale (0 no effect, 100 complete control) after 13 to 15 days; for Plant response rating, Sedge, Umbrella: Flood (flooded paddy test), 13 to 15 days
Method in brief: as §1

[5] = tested on: ducksalad (Heteranthera limosa); assay: Test B flooded paddy test; conditions: for Plant response rating, Flood, Ducksalad: 250 g ai/ha, flooded paddy test, visual rating on 0 to 100 scale (0 no effect, 100 complete control) after 13 to 15 days; for Plant response rating, Ducksalad: Flood (flooded paddy test), 13 to 15 days
Method in brief: as §1

[6] = tested on: chickweed (Stellaria media); assay: Test B postemergence plant response; conditions: Postemergence; for Chickweed plant response rating: 250 g ai/ha, scale 0 to 100
Method in brief: (§2)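 Visual ratings from 0 (no effect) to 100 (complete control), made against controls 13–15 days after treatment, kept in a greenhouse. Compounds were applied postemergence to potted plants at the 1- to 4-leaf stage (2–18 cm).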

[7] = tested on: windgrass (Apera spica-venti); assay: Test B postemergence plant response; conditions: Postemergence; for Windgrass plant response rating: 250 g ai/ha, scale 0 to 100
Method in brief: as §2

[8] = tested on: winter barley (Hordeum vulgare); assay: Test B postemergence plant response; conditions: Postemergence; for Barley plant response rating: 250 g ai/ha, scale 0 to 100
Method in brief: as §2

[9] = tested on: canarygrass (Phalaris minor); assay: Test B postemergence plant response; conditions: Postemergence; for Canarygrass plant response rating: 250 g ai/ha, scale 0 to 100
Method in brief: as §2

[10] = tested on: galium (catchweed bedstraw, Galium aparine); assay: Test B pre-/postemergence plant response; conditions: Preemergence; for Galium plant response rating: 125 g ai/ha
Method in brief: (§3)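 Visually scored on a 0 to 100 scale after 13 to 15 days in greenhouse versus controls. Treatments were preemergence on seeded loam/sand soil and postemergence on 1- to 4-leaf plants.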

[11] = tested on: pigweed (Amaranthus retroflexus); assay: Test B pre-/postemergence plant response
Method in brief: as §3

[12] = tested on: wild oat (Avena fatua); assay: Test B pre-/postemergence plant response
Method in brief: as §3

[13] = tested on: nightshade (eastern black nightshade, Solanum ptycanthum); assay: Test B pre-/postemergence plant response; conditions: Preemergence; for Nightshade plant response rating: 125 g ai/ha
Method in brief: as §3

[14] = tested on: sunflower (common oilseed sunflower, Helianthus annuus); assay: Test B pre-/postemergence plant response; conditions: Preemergence; for Sunflower plant response rating: 125 g ai/ha
Method in brief: as §3

[15] = 31 g ai/ha, scale of 0 to 100 where 0 is no effect and 100 is complete control
[16] = 62 g ai/ha, scale 0 to 100, 0 is no effect, 100 is complete control
[17] = 125 g ai/ha, scale 0 to 100, 0 is no effect, 100 is complete control
[18] = 31 g ai/ha, scale 0 to 100 (0 no effect, 100 complete control)
[19] = 62 g ai/ha, scale 0 (no effect) to 100 (complete control), 13 to 15 days
[20] = 125 g ai/ha, visual rating after 13 to 15 days, scale 0 (no effect) to 100 (complete control)
[21] = 125 g ai/ha, scale 0 to 100 (0 no effect, 100 complete control), 13 to 15 days
[22] = 62 g ai/ha, scale 0 to 100, 0 no effect, 100 complete control
[23] = 250 g ai/ha, Preemergence, 0 to 100 scale
[24] = Postemergence, 31 g ai/ha, scale 0 to 100 (0 no effect, 100 complete control)
[25] = Postemergence, 62 g ai/ha, scale 0 (no effect) to 100 (complete control), 13 to 15 days
[26] = Postemergence, 125 g ai/ha, visual rating after 13 to 15 days, scale 0 (no effect) to 100 (complete control)
[27] = Postemergence, 250 g ai/ha, scale 0 to 100
[28] = Preemergence, 31 g ai/ha, scale 0 to 100 (0 no effect, 100 complete control)
[29] = Preemergence, 62 g ai/ha, scale 0 to 100, 0 no effect, 100 complete control
[30] = Preemergence, 125 g ai/ha, 0 to 100 scale

5-[(2-hydroxy-6-oxo-1-cyclohexen-1-yl)carbonyl]-3-(2-methoxyethyl)-2-(3-thienyl)-4(3H)-pyrimidinone [Compound 97]
30: Plant response rating, Windgrass [7, 20]
0: Plant response rating, Flood, Rice [2] | Plant response rating, Rice [2, 15] | Plant response rating, Rice [2, 16] | Plant response rating, Rice [2, 17] | Plant response rating, Flood, Barnyardgrass [3] | Plant response rating, Barnyardgrass [3, 15] | Plant response rating, Barnyardgrass [3, 16] | Plant response rating, Barnyardgrass [3, 17] | Plant response rating, Sedge, Umbrella [4, 15] | Plant response rating, Ducksalad [5, 15] | Plant response rating, Barley [8, 18] | Plant response rating, Barley [8, 19] | Plant response rating, Barley [8, 21] | Plant response rating, Canarygrass [9, 18] | Plant response rating, Canarygrass [9, 19] | Plant response rating, Galium [10, 18] | Plant response rating, Oat, Wild [12, 24] | Plant response rating, Oat, Wild [12, 28] | Plant response rating, Oat, Wild [12, 29] | Oat, Wild plant response rating [12, 30] | Plant response rating, Sunflower [14, 18]
10: Plant response rating, Windgrass [7, 19] | Plant response rating, Galium [10, 22] | Plant response rating, Oat, Wild [12, 23]
98: Chickweed plant response rating [6] | Plant response rating, Sunflower ([14]; 250 g ai/ha, 0 to 100 scale)
55: Plant response rating, Flood, Sedge, Umbrella [4] | Plant response rating, Sedge, Umbrella [4, 17]
5: Plant response rating, Windgrass [7, 18] | Barley plant response rating [8] | Plant response rating, Canarygrass [9, 20] | Plant response rating, Oat, Wild [12, 25]
20: Plant response rating, Ducksalad [5, 16] | Plant response rating, Oat, Wild [12, 26]
90: Plant response rating, Chickweed [6, 18]
100: Plant response rating, Pigweed [11, 23] | Pigweed plant response rating [11, 27] | Plant response rating, Pigweed [11, 28] | Plant response rating, Pigweed [11, 29] | Pigweed plant response rating [11, 30] | Plant response rating, Nightshade ([13]; 250 g ai/ha, 0 to 100 scale) | Plant response rating, Nightshade [13, 18] | Plant response rating, Nightshade [13, 22] | Nightshade plant response rating ([13]; 0 to 100 scale)
40: Plant response rating, Sedge, Umbrella [4, 16] | Windgrass plant response rating [7] | Canarygrass plant response rating [9] | Oat, Wild plant response rating [12, 27]
80: Plant response rating, Flood, Ducksalad [5] | Plant response rating, Sunflower [14, 22]
85: Plant response rating, Galium ([10]; 250 g ai/ha, 0 to 100 scale) | Galium plant response rating ([10]; 0 to 100 scale) | Plant response rating, Pigweed [11, 24] | Plant response rating, Pigweed [11, 25]
95: Plant response rating, Chickweed [6, 19] | Plant response rating, Chickweed [6, 20] | Plant response rating, Pigweed [11, 26] | Sunflower plant response rating ([14]; 0 to 100 scale)
75: Plant response rating, Goosegrass [1] | Plant response rating, Ducksalad [5, 17]

5-[(2-hydroxy-6-oxo-1-cyclohexen-1-yl)carbonyl]-3-phenyl-2-(3-pyridinyl)-4(3H)-pyrimidone [Compound 113]
100: Chickweed plant response rating [6] | Plant response rating, Pigweed [11, 23] | Plant response rating, Pigweed [11, 28] | Plant response rating, Pigweed [11, 29] | Pigweed plant response rating [11, 30] | Plant response rating, Nightshade ([13]; 250 g ai/ha, 0 to 100 scale)
5: Plant response rating, Windgrass [7, 18] | Plant response rating, Windgrass [7, 19] | Plant response rating, Windgrass [7, 20] | Windgrass plant response rating [7]
25: Plant response rating, Goosegrass [1] | Plant response rating, Sunflower ([14]; 250 g ai/ha, 0 to 100 scale)
90: Plant response rating, Chickweed [6, 20] | Plant response rating, Pigweed [11, 26] | Plant response rating, Nightshade [13, 22]
0: Plant response rating, Flood, Rice [2] | Plant response rating, Rice [2, 15] | Plant response rating, Rice [2, 16] | Plant response rating, Rice [2, 17] | Plant response rating, Flood, Barnyardgrass [3] | Plant response rating, Barnyardgrass [3, 15] | Plant response rating, Barnyardgrass [3, 16] | Plant response rating, Barnyardgrass [3, 17] | Plant response rating, Flood, Sedge, Umbrella [4] | Plant response rating, Sedge, Umbrella [4, 15] | Plant response rating, Sedge, Umbrella [4, 16] | Plant response rating, Sedge, Umbrella [4, 17] | Plant response rating, Flood, Ducksalad [5] | Plant response rating, Ducksalad [5, 15] | Plant response rating, Ducksalad [5, 16] | Plant response rating, Ducksalad [5, 17] | Plant response rating, Barley [8, 18] | Plant response rating, Barley [8, 19] | Plant response rating, Barley [8, 21] | Barley plant response rating [8] | Plant response rating, Canarygrass [9, 18] | Plant response rating, Canarygrass [9, 19] | Plant response rating, Canarygrass [9, 20] | Canarygrass plant response rating [9] | Plant response rating, Galium ([10]; 250 g ai/ha, 0 to 100 scale) | Plant response rating, Galium [10, 18] | Plant response rating, Galium [10, 22] | Galium plant response rating ([10]; 0 to 100 scale) | Plant response rating, Oat, Wild [12, 23] | Plant response rating, Oat, Wild [12, 24] | Plant response rating, Oat, Wild [12, 25] | Plant response rating, Oat, Wild [12, 26] | Plant response rating, Oat, Wild [12, 28] | Plant response rating, Oat, Wild [12, 29] | Oat, Wild plant response rating [12, 30] | Plant response rating, Sunflower [14, 18] | Plant response rating, Sunflower [14, 22] | Sunflower plant response rating ([14]; 0 to 100 scale)
75: Plant response rating, Pigweed [11, 24] | Plant response rating, Pigweed [11, 25]
10: Oat, Wild plant response rating [12, 27]
80: Plant response rating, Chickweed [6, 19] | Plant response rating, Nightshade [13, 18]
95: Nightshade plant response rating ([13]; 0 to 100 scale)
98: Pigweed plant response rating [11, 27]
60: Plant response rating, Chickweed [6, 18]
